Here are results for 7 molecules from ChEMBL document CHEMBL4364277, “Medicinal prospects of antioxidants: A review” (Eur J Med Chem, 2019).

A word on the IC50: it is the midpoint of a concentration-inhibition curve. As usually defined, the inhibition in vivo is the change of the read-out against control, counted positive when it falls.

The nature of series [1]: Anti glycation activity assessed as inhibition of BSA glycation after 7 days in presence of glucose by spectrofluorimetry assay. It counts as functional.
Series [2] can be described thus: Antioxidant activity assessed as DPPH radical scavenging activity after 30 mins. It counts as functional. For orientation: The DPPH test is a chemical assay of radical scavenging.
Series [3] deals with Rattus norvegicus. The series is described as follows: Anti-inflammatory activity in rat assessed as inhibition of formalin-induced paw edema administered as po dose pretreated for 1 hr followed by formalin addition measured up to 6 hrs relative to control. It counts as functional.
Series [4] deals with Rattus norvegicus. The series is described as follows: Anti-inflammatory activity in rat assessed as inhibition of formalin-induced paw edema at 20 mg/kg, po pretreated for 1 hr followed by formalin addition measured up to 6 hrs relative to control. Type of series: functional.
Series [5] in a line: Hemolytic activity in human RBC relative to control. It counts as cell-based, Erythrocyte. The following applies: red blood cells (erythrocytes), read-out: Activity.
A further series deals with MCF7. The series is described as follows: Cytotoxicity against human MCF7 cells after 48 hrs by MTT assay. Type of series: functional, cell-based. The following applies: MCF7, 48 h. In general terms: Formazan colour is commonly taken as a measure of viable cells.

For `Oc1ccc(-c2nc3ncc(Cl)cc3[nH]2)c(O)c1`, the IC50 in series [1] was determined as 240 µM; in series [2] it was 58.1 µM.

Take `O=c1oc2ccc(Cl)cc2cc1-c1nc2ccccc2[nH]1`: in the series on Rattus norvegicus [3], the “inhibition (INH)” value was determined as 46.75%. `COc1ccc2c(c1)c(CC(=O)O)c(C)n2C(=O)c1ccc(Cl)cc1` [INDOMETHACIN]: the inhibition in vivo at 20 mg/kg with Rattus norvegicus [4] is 54.5%. For `Oc1ccc(O)c(-c2nc3ncc(Cl)cc3[nH]2)c1`, the IC50 in series [1] is 240 µM; in series [2], 72.5 µM. As to `O=C(Cc1cc(=O)oc2cc(O)ccc12)Nc1nc2ccccc2o1`, in series [5], the hemolysis stood at 92.5%. Turning to `O=C(Nc1nc2ccccc2[nH]1)c1cc2ccccc2oc1=O`, in the series with Rattus norvegicus [3], the “inhibition (INH)” value is 42.85%. `Cc1nnc(N2C(=O)CSC2c2ccccc2[N+](=O)[O-])s1` (centres undefined) yielded an IC50 in the series on MCF7 of 46.3 µM.
